Measurements from patent US20180140637A1, “EPIDERMAL NEURAL CREST STEM CELLS AS A SOURCE OF SCHWANN CELLS” (priority 2015, published 2018).

What was measured:
hEPI-NCSC = assay: Differentiation of hEPI-NCSC into Schwann cells; type: cell-based, human
Protocol: hEPI-NCSC were seeded at 2,500-5,000 cells per CELLstart™-coated 35-mm culture plate and cultured at 36.8° C., 5% CO2 and 5% O2. At differentiation Day minus 3 (D-3), cells were placed in XP medium, which is NeuroCult XF medium (Stem Cell Technologies, Grenoble, France Cat# 05761) supplemented with 10 ng/ml rhFGF2 (R&D Systems, Abingdon, UK Cat# 233-FB), 20 ng/ml rhEGF (R&D Systems Cat# 236-EG), 1× ITS+3 (Sigma, Poole, UK Cat# 1-2771), 1% (v/v) FBS (HyClone, Thermo Fisher, Cramlington, UK Cat# SH30070.02), 1× GlutaMAX (Invitrogen, Cat# 35050-038), 1× Penicillin/Streptomycin (Sigma Cat# P0781) and 2.5 μg/ml Amphotericin B (Sigma Cat# A2942).
The cells in XP medium were treated with 500 ng/ml recombinant human sonic hedgehog (C2411) N-terminus (rhSHH) and 500 nM CHIR99021 for two days. At differentiation Day −1, the cells were subcultured. Cells were detached with TrypLE Select, centrifuged, and plated in XP medium at a density of 30,000 cells per 35 mm culture plate and 1,000 cells per poly-D-lysine and laminin-coated 13-mm diameter glass coverslip. The next day (differentiation Day 0), cells were cultured in Alpha-modified MEM in the presence of 10% FBS and 1 mM β-mercaptoethanol (βME) for 24 hours, which was followed by treatment with 35 ng/ml all-trans-retinoic acid according to the method of Dezawa et al (2001). At differentiation Day 3, the FBS concentration was reduced to 1%. Starting at differentiation Day 0, 10 μM SB431542 was added to the culture medium. Retinoic acid and SB431542 remained in the culture medium throughout the culture period. At Day 3, 10 ng/ml rhFGF2, 5 ng/ml recombinant human PDGF-BB (rhPDGF-BB), 5 μM forskolin, 200 ng/ml recombinant human neuregulin-1 (rhNRG) were added to the culture medium. The culture medium was exchanged every 48 hours.
At Day 0 of differentiation, cells were treated for 24 hours with β-mercaptoethanol, and all-trans-retinoic acid was added on differentiation Day 1 according to the method of Dezawa et al (2001). Neither the three-day treatment with retinoic acid, nor five days of exposure to retinoic acid were sufficient for differentiating hEPI-NCSC into Schwann cells as judged by cell morphology and marker expression. […] At Day 0, SB431542, an inhibitor of transforming growth factor-beta 1 (TGFβ1) activin receptor-like kinases (ALKs), was also added to the culture medium (FIG. 1). […] On Day 3, FGF2, PDGF-BB, forskolin, and neuregulin-1 were added.

[1] = tested on: endogenous Schwann cells (non-neuronal cells) of dorsal root ganglia (DRG) explants; assay: Removal of non-neuronal cells from DRG explants; type: cell-based, rodent; details: for removal of endogenous Schwann cells from DRG explants: rodent DRG explants, camptothecin 20 μM three times for 48 hours each, data not shown
Protocol: (§1) Mice ([C57BL/6-TgN(ACTbEGFP)]Osb]; ‘green mice’) (Okabe et al, 1997) and rats were handled in accordance to protocols approved by the Animal Care Committee of Newcastle University (project licence 60/3876). Whole mount DRG explants from E15.5 Wistar rat embryos were dissected as described by Päiväläinen et al. (2008) and Liu et al. (2011). Dissociated DRG cultures from adult ‘green’ mice were prepared according to Malin et al (2007) and Johnson et al (2001). To remove non-neuronal cells, DRG explants were treated with camptothecin (20 μM) three times for 48 hours each, on Days 2-5, 6-8, and 13-15.
(§2) Co-cultures of hEPI-NCSC derived Schwann cells and rodent dorsal root ganglia (DRG) explants were prepared by first treating the DRG explants with camptothecin to eliminate non-neuronal cells. […] Neuronal toxicity of camptothecin has been documented previously (Bhanu and Kondapi, 2010).
Anti-human nuclear antibody immunofluorescence confirmed that all P-zero immunoreactive Schwann cells were of human origin (FIG. 7A-7C; pale blue fluorescence in original).

[2] = tested on: large diameter sensory neurons; assay: Neuronal toxicity in DRG explants; type: cell-based, rodent
Protocol: as §1, §2

SAPK2/p38 = SAPK2/p38 (Homo sapiens, UniProt Q16539); details: inhibitor of CK1 and ALK5; cited from earlier work
SAPK2/p38, sequence (Q16539 whole entry): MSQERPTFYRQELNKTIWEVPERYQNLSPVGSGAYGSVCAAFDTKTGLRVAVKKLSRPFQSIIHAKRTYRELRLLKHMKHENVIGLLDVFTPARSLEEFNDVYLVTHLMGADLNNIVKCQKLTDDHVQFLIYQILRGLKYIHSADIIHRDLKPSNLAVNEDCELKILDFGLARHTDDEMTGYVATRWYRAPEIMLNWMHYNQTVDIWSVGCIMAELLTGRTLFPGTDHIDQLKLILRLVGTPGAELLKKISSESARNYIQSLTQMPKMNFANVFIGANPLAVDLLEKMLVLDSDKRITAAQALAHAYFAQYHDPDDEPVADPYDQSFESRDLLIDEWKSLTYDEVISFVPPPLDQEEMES

For `NC(=O)c1ccc(-c2nc(-c3ccc4c(c3)OCO4)c(-c3ccccn3)[nH]2)cc1` [SB 431542, 4-[4-(1,3-benzodioxol-5-yl)-5-(2-pyridinyl)-1H-imidazol-2-yl]benzamide], the “effect on differentiation into Schwann cells” value (hEPI-NCSC; 10 μM throughout the differentiation period) was “facilitated differentiation”.

In the case of `Nc1ccn([C@@H]2O[C@H](CO)[C@@H](O)[C@@H]2O)c(=O)n1` [cytosine arabinoside], the “removal of endogenous Schwann cells from DRG explants” value [1] is reported as “did not”.

In the case of `CC[C@@]1(O)C(=O)OCc2c1cc1n(c2=O)Cc2cc3ccccc3nc2-1` [camptothecin], the “removal of endogenous Schwann cells from DRG explants” value [1] is reported as “efficiently removed endogenous Schwann cells”, the “non-neuronal cells in treated DRG explants” value ([1]; whole DRG explants from E15.5 rat embryos, camptothecin 20 μM) is reported as “clear of non-neuronal cells” and the “toxicity to sensory neurons” value [2] is reported as “selectively toxic to large diameter sensory neurons”.

For `NC(=O)c1ccc(-c2nc(-c3ccc4c(c3)OCCO4)c(-c3ccccn3)[nH]2)cc1` [D 4476, 4-[4-(2,3-Dihydro-1,4-benzodioxin-6-yl)-5-(2-pyridinyl)-1H-imidazol-2-yl]benzamide], the “selectivity over SAPK2/p38” value (SAPK2/p38) is listed as “greater than 20 fold”.

In the case of `CC1=C(/C=C/C(C)=C/C=C/C(C)=C/C(=O)O)C(C)(C)CCC1` [Retinoic acid, all-trans-retinoic acid], the “deleterious effects to the cells” value (hEPI-NCSC; 35 ng/ml in the differentiation medium throughout the culture period) is reported as “without any detectable deleterious effects to the cells”, the “Schwann cell differentiation, judged by cell morphology and marker expression” value (hEPI-NCSC; retinoic acid treatment for 3 days) is reported as “not conducive to highly efficient Schwann cell differentiation” and the “Schwann cell differentiation, judged by cell morphology and marker expression” value (hEPI-NCSC; retinoic acid treatment for 5 days (data not shown)) is reported as “not conducive to highly efficient Schwann cell differentiation”.
